Test results as given in patent EP0867722A2, “Method for measuring interaction between sugar and target” (TAKARA SHUZO CO. LTD., priority 1997, dated 1998).

biological target: T1, concanavalin A (Canavalia ensiformis, UniProt P02866); assay: Fluorescence polarization measurement of interaction between fluorescence-labeled sugar fractions and concanavalin A; format: binding; conditions: 1 µM labeled sugar or fluorophore; no maximum means EC50 impossible to calculate
T1 construct: purchased Honen Oil Co., Ltd
From the text: The interaction between the sugar molecules and the target molecules to be measured is not always highly specific as compared with antigen-antibody reaction. To find the most suitable combination, the degree of interaction should be evaluated. As an index to show the degree of interaction, for example, EC50 can be used, which is a half value of the minimum target concentration giving the maximum degree of fluorescence polarization.
BEACON™ 2000 (PanVera Corp.) was modified so as to be adapted for the detection of pyridylamino-labeled substances. […]
Seven fractions of fluorescence-labeled sugars prepared in the above item 1 were freeze-dried to remove water, acetonitrile and eluents-derived salts, and then used for the subsequent measurement of an interaction. The measurement of the degree of fluorescence polarization was conducted as follows. […]
In each of the eight solutions of concanavalin A in various concentrations, each fluorescence-labeled sugar fraction was dissolved to a concentration of 1 µM. After the dissolution, the solutions were allowed to stand at room temperature for 30 minutes, and the reaction mixtures thus obtained were used each in a volume of 100 µl to measure the degree of fluorescence polarization with a modified apparatus of the BEACON™ system as described in the above item 2, which was equipped with filters for excitation at 310 nm and emission at 390 nm. […]

Structure (SMILES) | maximum in the degree of fluorescence polarization over the range of concentration of concanavalin A
Nc1ccccn1 [AP, 2-Aminopyridine] | no maximum

tested on: not listed separately; assay: Photostability of labeling fluorophores under white fluorescent lamp (residual fluorescence); format: physicochemical; conditions: 1 µM in 10 mM Tris-HCl buffer, pH 7.5, 25°C, white fluorescent lamp about 4000 lux, 16 hours; ratio of exposed solution to shaded solution
From the text: For the measurement of photostability, therefore, such labeling fluorophores are used. The following seven labeling fluorophores were selected. • 1. 2-Aminopyridine (AP) (Nacalai Tesque Inc.) • 2. […] 8-Amino-2-naphthol (AN) (Aldrich Chemical Company, Inc.) • 4. 5-((5-aminopentyl)thioureidyl)fluorescein (AF) (Molecular Probes Inc.) • 5. 5-Dimethylaminonapnthalene-1-(N-(2-minoethyl))sulfone (AD) (Molecular Probes Inc.) • 6. 2-Aminobenzamide (AB) (Oxford GlycoSystems Ltd.) • 7. 8-Amino-naphthalene-1,3,6-trisulfonic acid (ANTS) (Molecular Probes Inc.)
Each of the above reagents was dissolved in 10 mM Tris-HCl buffer, pH 7.5, to a concentration of 1 µM, and 1 ml of each solution was placed in a test tube of hard glass (size: diameter, 12 mm and length, 120mm) and allowed to stand at 25°C under a white fluorescent lamp. At this time, the illumination intensity in the vicinity of each solution was measured by an illumination photometer to be about 4000 lux. For controls, test tubes containing the same solutions were prepared, but they were shaded with aluminum foil and stored under the same conditions as described above. After 16 hours, the fluorescence of each solution was measured by fluorescent spectrophotometer RF-540 (Shimazu Corp.). The excitation and emission wavelengths used in the measurement of fluorescence of the solutions of each fluorescent substance, and residual fluorescence (i.e., ratio of the relative degree of fluorescence for the exposed solution to the relative degree of fluorescence for the shaded solution) are shown in Table 1.

Structure (SMILES) | Residual fluorescence (%)
NC(=O)c1ccccc1N [AB, 2-Aminobenzamide] | 96
CN(C)c1cccc2c(S(=O)(=O)NCCN)cccc12 [AD, 5-Dimethylaminonapnthalene-1-(N-(2-minoethyl))sulfone] | 97
Nc1cc(S(=O)(=O)O)cc2cc(S(=O)(=O)O)cc(S(=O)(=O)O)c12 [ANTS, 8-Amino-naphthalene-1,3,6-trisulfonic acid] | 96
Nc1ccccn1 [AP, 2-Aminopyridine] | 98

The next lines start with the values.

Residual fluorescence (%) | Structure (SMILES)
17 | NCCCCCNC(=S)Nc1ccc2c(c1)C(=O)OC21c2ccc(O)cc2Oc2cc(O)ccc21 [AF, 5-((5-aminopentyl)thioureidyl)fluorescein]
84 | Nc1cccc2ccc(O)cc12 [AN, 8-Amino-2-naphthol]
